{
  "source": "PubChem BioAssay AID1645864",
  "about": "(Buhrlage Lab, Dana-Farber Cancer Institute and Novartis …, 2021)",
  "note": "Active and inactive are the calls of the source.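 How the source made its calls: active means maximal inhibition of USP17 at or above 30% in the confirmation dose-response, a value not among the printed readouts; inactive means the rest.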",
  "data": [
    {"biological_target": "Ubiquitin carboxyl-terminal hydrolase 17-like protein 5 (Homo sapiens) (UniProt A8MUK1)", "sequence (A8MUK1 whole entry, looked up)": "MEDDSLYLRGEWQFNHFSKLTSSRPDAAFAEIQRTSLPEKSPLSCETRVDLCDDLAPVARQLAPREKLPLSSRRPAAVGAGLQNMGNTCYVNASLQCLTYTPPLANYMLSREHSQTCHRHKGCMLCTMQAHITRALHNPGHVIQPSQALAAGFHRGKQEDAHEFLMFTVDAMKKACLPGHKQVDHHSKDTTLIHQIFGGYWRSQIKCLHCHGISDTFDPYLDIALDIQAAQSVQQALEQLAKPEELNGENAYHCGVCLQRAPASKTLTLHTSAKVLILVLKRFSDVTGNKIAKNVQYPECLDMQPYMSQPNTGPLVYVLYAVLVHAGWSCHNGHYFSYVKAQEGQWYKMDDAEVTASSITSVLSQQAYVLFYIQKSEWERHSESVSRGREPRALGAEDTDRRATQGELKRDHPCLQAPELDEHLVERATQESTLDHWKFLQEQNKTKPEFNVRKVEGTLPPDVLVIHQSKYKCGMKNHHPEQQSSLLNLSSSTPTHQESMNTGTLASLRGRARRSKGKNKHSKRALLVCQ", "assay": "ubiquitin-specific protease 17 inhibitors, concentration series, biochemical, verification of primary actives (AID 1645864)", "conditions": "purified USP17, ubiquitin-rhodamine cleavage fluorescence, 3 h", "values": [
      {"compound": "COc1ccccc1NC(=O)CSC1=NC2(CCCCC2)Nc2ccccc21", "IC50": "> 50 µM (inactive)"},
      {"compound": "O=S(=O)(Cc1nnc(-c2ccccc2C(F)(F)F)o1)c1ccc(Cl)cc1", "IC50": "> 50 µM (inactive)"},
      {"compound": "COc1cc(NC(=O)Cn2c(=O)n(-c3ccc(CC(=O)NC4CCCC4)cc3)c(=O)c3ccccc32)cc(OC)c1", "IC50": "> 5 µM (inactive)"},
      {"compound": "CCn1cc(-c2nc(-c3ccccc3)no2)c(=O)c2cc(F)ccc21", "IC50": "2.34 µM"},
      {"compound": "COc1cccc(CC(=O)Nc2cc(F)c3nc(N4CCOCC4)ccc3c2)c1", "IC50": "> 50 µM (inactive)"},
      {"compound": "CC(C)Cc1nc2sc3c(NCc4ccccc4)ncnc3c2c2c1COC(C)(C)C2", "IC50": "6.77 µM"},
      {"compound": "c1coc(CNc2nc3ccccc3n3nnnc23)c1", "IC50": "> 50 µM (inactive)"},
      {"compound": "Cc1ccc(-c2noc(-c3nnc(SCC(=O)NC4CCCC4)n3C)n2)cc1", "IC50": "2.34 µM"},
      {"compound": "COc1ccc(NS(=O)(=O)c2ccc(NC(=O)Nc3ccc(Cl)cc3)cc2)cc1", "IC50": "23.9 µM"},
      {"compound": "CC1(C)Cc2c(sc3nc(Cc4ccccc4)nc(SCC(=O)Nc4ccccc4)c23)CO1", "IC50": "2.35 µM"},
      {"compound": "COc1cccc(NC(=O)Nc2ccc3nc4n(c(=O)c3c2)CCCC4)c1", "IC50": "9.31 µM"},
      {"compound": "CC(C)NS(=O)(=O)c1ccc(OCC(=O)N2CCC(Cc3ccccc3)CC2)cc1", "IC50": "> 50 µM (inactive)"},
      {"compound": "CC(=O)c1ccc(Cc2ncc(C(F)(F)F)cc2Cl)s1", "IC50": "> 50 µM (inactive)"},
      {"compound": "COc1ccc(-c2nc(CNC(=O)COc3ccc(C)cc3)cs2)cc1", "IC50": "36.9 µM"},
      {"compound": "Cc1sc(NC(=O)/C=C/c2ccco2)nc1-c1ccccc1", "IC50": "> 50 µM (inactive)"},
      {"compound": "N#Cc1cccc(NC(=O)Nc2cccn(Cc3ccccc3F)c2=O)c1", "IC50": "21 µM"},
      {"compound": "CCOc1ccc(CCNC(=O)c2cccc3c2C(=O)N(CCOC)C3)cc1OCC", "IC50": "> 50 µM (inactive)"},
      {"compound": "Fc1cccc(Cn2cc(-c3noc(-c4cccnc4)n3)nn2)c1", "IC50": "38.3 µM"},
      {"compound": "O=c1c2ccccc2oc2nc(-c3cccs3)n(-c3ccccc3)c(=O)c12", "IC50": "2.67 µM"},
      {"compound": "C/C=C1/C2=CCCN3C(=O)O[C@H]([C@H]1O)[C@H]23", "IC50": "1.42 µM"},
      {"compound": "Cc1ccc(Cl)c(-n2nnc(C(=O)Nc3ccccc3C#N)c2C)c1", "IC50": "4.85 µM"},
      {"compound": "Cn1cc(-c2noc(Cc3cccc(C(F)(F)F)c3)n2)ccc1=O", "IC50": "> 50 µM (inactive)"},
      {"compound": "O=C(COc1ccc2c(-c3ccccc3)cc(=O)oc2c1)Nc1cccnc1", "IC50": "1.7 µM"},
      {"compound": "C=C(NC(=O)C(=C)NC(=O)c1csc(C2=N[C@@H]3c4csc(n4)[C@H]4NC(=O)c5csc(n5)[C@H]([C@](C)(O)[C@@H](C)O)NC(=O)C5CSC(=N5)/C(=C/C)NC(=O)C([C@@H](C)O)NC(=O)c5csc(n5)[C@]3(CC2)NC(=O)[C@H](C)NC(=O)C(=C)NC(=O)[C@H](C)NC(=O)C([C@@H](C)CC)NC2C=Cc3c(C(C)O)cc(nc3[C@H]2O)C(=O)OC4C)n1)C(N)=O", "note": "(stereo partly drawn)", "IC50": "> 50 µM (inactive)"},
      {"compound": "COc1ccc2nc(Nc3ncc4c(n3)CCCC4=O)nc(C)c2c1", "IC50": "> 5 µM (inactive)"},
      {"compound": "O=C(NCc1ccccc1Cl)c1ccc(-c2nnc(-c3ccccc3)o2)cc1", "IC50": "2.5 µM"},
      {"compound": "COc1ccc(Nc2nc(C(=O)NCc3ccc4c(c3)OCO4)cc3occc23)cc1", "IC50": "10.7 µM"},
      {"compound": "Cc1ccc(NC(=O)Cc2nnc3cc(-c4nc(C)no4)ccn23)cc1", "IC50": "18.7 µM"},
      {"compound": "CC1CCc2sc(NC(=O)c3ccccc3Oc3ccccc3)c(C(N)=O)c2C1", "note": "(stereo not drawn)", "IC50": "6.96 µM"},
      {"compound": "Cc1cccc(NC(=O)Nc2ccc(C)n(CC(=O)Nc3ccccc3)c2=O)c1", "IC50": "22.6 µM"},
      {"compound": "O=C(COc1ccc2oc3c(c2c1)CCCC3)Nc1ccccn1", "IC50": "25.4 µM"},
      {"compound": "O=C(CNC(=O)OCc1ccccc1)Nc1ccc(Br)cc1C(=O)c1ccccc1Cl", "IC50": "9.66 µM"},
      {"compound": "CC(=O)Nc1ccc(NC(=O)c2cc(-c3cc(C)cc(C)c3O)n[nH]2)cc1", "IC50": "16.3 µM"},
      {"compound": "Cc1ccc(-c2nc(-c3cccs3)cc(C(F)(F)F)c2C#N)cc1", "IC50": "> 50 µM (inactive)"},
      {"compound": "CN1c2ccccc2CN(CC(N)=O)CC1Cc1ccccc1", "note": "(stereo not drawn)", "IC50": "> 50 µM (inactive)"},
      {"compound": "COc1ccc(C(=O)Nc2n[nH]c(C)c2-c2cccc(C)c2)c(OC)c1", "IC50": "2.74 µM"},
      {"compound": "COc1cnc(-c2ccccn2)nc1Sc1ccccc1Cl", "IC50": "16.2 µM"},
      {"compound": "COc1ccc(NC(=O)COc2ccc3ccc(=O)oc3c2)cc1", "IC50": "33.5 µM"}
    ]}
  ]
}
